One molecule from patent publication US20120251628A1, “COMPOSITIONS AND METHODS FOR TREATMENT OF CANCER” (priority 2011, published 2012) can be followed below.

Data set [1] deals with CT26 colon carcinoma cells. Briefly: Observation of necrosis in tumor tissues after treatment (tumor images). The class given is in vivo. Conditions: 10 mg/kg intraperitoneal; discolored at 24 hours after injection; BALB/c mice. The procedure:
Seven-week-old, female, specific-pathogen-free (BALB/c) white mice (weight: approximately 20 g) purchased from ORIENTBIO Inc. (Seoul Korea) were subcutaneously injected with 2×10^6 of CT26 colon carcinoma cells per mouse. When the tumor size became 3 mm in diameter, the control group was injected with a phosphate buffered saline (PBS) solution with 5% dextrose while the experimental group was intraperitoneally injected with 100 μL of sodium meta arsenite at a concentration of 10 mg/kg with 5% dextrose. After injection, the measurements of the size of tumors (volume=πab^2/6, where a and b are diameters of tumors) by using the caliper once every two days and the images of the tumors were recorded for 15 days. While the discoloration of the tissues of the mice injected without sodium meta arsenite was not observed for a certain period of time, the central part of tumors in the tissues of the white mice injected with sodium meta arsenite became discolored at 24 hours after the injection of sodium meta arsenite. As time went by, it was observed that the tumors became discolored regardless of the injection of sodium meta arsenite.

Data set [2] deals with CT26 colon carcinoma cell line. Briefly: Histologic analysis (hematoxylin and eosin) of tumor tissues. The class given is in vivo, mice. Conditions: 10 mg/kg intraperitoneal; 8, 24 and 48 hours after injection; with increasing exposure time; from the central part of the tumors. The procedure:
(§1) Seven-week-old, female, specific-pathogen-free (BALB/c) white mice (weight: approximately 20 g) purchased from ORIENTBIO Inc. (Seoul Korea) were subcutaneously injected with 2×10^6 cells of the CT26 colon carcinoma cell line per mouse. When the tumor size reached 3 mm in diameter, the control group was injected with a phosphate buffered saline (PBS) solution with 5% dextrose while the experimental group was intraperitoneally injected with 100 μL of KML001 at a concentration of 10 mg/kg with 5% dextrose. At 8, 24 and 48 hours after injection, liver, spleen and tumor tissue samples were taken and placed into a 37% solution of formaldehyde for 24 hours. The tissues were inserted into paraffin and sectioned at 4 μm on a microtome (made by SLEE MAINZ GmbH in Germany) and the sections were placed on slides.

Data set [3] in a line: Histologic analysis of normal organ tissues for ischemic damage. Conditions: 10 mg/kg intraperitoneal; 8, 24 and 48 hours after injection. Format: in vivo, mice. On the procedure:
as §1

For a further data set, the system named is HUVECs. Briefly: Cytotoxicity test of HUVECs (CellTiter 96 Aqueous One Solution). Format: cell-based, Human. On the procedure: To determine the effect, if any, of sodium meta arsenite on vascularization, the effect on endothelial cells (which are essential for vascularization) was first analyzed. Human umbilical cord vein endothelial cells (HUVECs offered by ATCC) were cultivated in 96-well microculture plates containing F-12K (Sigma) medium supplemented with 10% FBS and endothelial cell growth supplement (ECGS, E2759, Sigma). For the cytotoxicity test of the cells after 24 hour cultivation, the cells were treated with KML001 at the concentration of 0.1 nM, 1 nM, 10 nM, 1 uM, 10 uM and 100 uM. At 24 hours and 48 hours after treatment, 20 μl/well of CellTiter 96® Aqueous One Solution (by Promega) Reagent was added on each well and reacted for one hour at 37° C. The reacted 96-well plates were measured at 490 nm using a spectrophotometer (UVStar, Greiner Bio-One). To analyze apoptosis of HUVECs, the cells were cultivated on F25 flasks using the same method as discussed above and then the cells were treated with sodium meta arsenite at a concentration of 10 uM, 20 uM and 50 uM. Cells were collected after 24 and 48 hours. The collected cells were stained for 30 minutes with Annexin-V for FACS analysis. After two washes, the cells were analyzed by using flow cytometry (FACSCALIBUR, BECTON DICLINSON).

The test system of a further data set is α-tubulin. Description: Western blot of total tubulin protein from HUVECs. The class given is cell-based, Human. Conditions: 5, 10, 20 and 50 uM, 24 and 48 hours, higher concentration. On the procedure:
(§2) To analyze the change in the overall expression of tubulin, the total amount of tubulin protein was kept to identify by western blotting. HUVECs were cultured in F25 culture flasks containing F-12K (Sigma) medium supplemented with 10% FBS and endothelial cell growth supplement (ECGS, E2759, Sigma). After cultivation for 24 hours, the cells were treated with sodium meta arsenite at concentrations of 5 uM, 10 uM, 20 uM and 50 uM. At 24 hours and 48 hours after treatment, the cells were collected and washed with phosphate buffered saline (PBS) solution. The washed cells were reacted with THF solution (50 mM Tris-Hcl, pH 7.5, 100 mM NaCl, 2 mM EDTA, 1% NP-40, protease inhibitor) at 4° C. for 15 minutes and then broken down or destroyed by use of an ultrasonic cell crusher before SDS (0.5%) was added. Protein from the samples was assayed by using a BCA protein kit (Thermo, 23227) before the same amount of protein (3 μg) was mixed with protein sample buffer. […] warmed up in a water bath in boiling water at 100° C. for five minutes. SDS-PAGE was conducted using a 10% polyacrylamide gel. At the end of electrophoresis, the gel was transferred to nitrocellulose membrane in semi-dry method at room temperature at 220 mA for 40 minutes. […]

The subject of the next data set is β-tubulin. Briefly: Western blot of total tubulin protein from HUVECs. The class given is cell-based, Human. Conditions: 5, 10, 20 and 50 uM, 24 and 48 hours, higher concentration. The procedure:
as §2

With `O=[As][O-].[Na+]` [sodium meta arsenite], the “discoloration of the central part of tumors due to necrosis” value in data set [1] was “the tissues in the central part became discolored due to necrosis”. Besides, the “scope of necrotic cell death in the tumor tissues” value in data set [2] is “observed to increase”. Further, the “ischemic damage in liver, spleen or kidney tissues” value in data set [3] is “No ischemic damage was observed”. Besides, the “concentration at which cytotoxicity was observed” value in the data set on HUVECs (24 and 48 hours after treatment, tested 0.1 nM to 100 uM) was 10 µM. For the same molecule, the cytotoxicity over time result in the data set with HUVECs (24 hours vs 48 hours) is on record as “significantly increased over time”. For the same molecule, the “protein level of α-tubulin” value in the data set with α-tubulin is “reduced the protein level”. Besides, in the data set on β-tubulin, the “protein level of β-tubulin” value is reported as “reduced the protein level”.
